Assay results published in patent publication US8227470B2, “Combination treatment of solid cancers with antimetabolites and tyrosine kinase inhibitors” (AB Science, priority 2007, dated 2012).
“Also recorded” adds a separate entry of the source. One block for each molecule: values may come before it.

Key:
[1] = system: human mast cell line expressing the JMΔ27 mutated c-kit; experiment: Apoptosis induction in mast cell line; assay type: cell-based; conditions: 0.1 μM, after 48 hours; control cells 10% apoptotic
Protocol: (§1) In this experiment, after 48 hours, 0.1 μM AB1010 induced apoptosis of approximately 50% versus control cells in which 10% of cells were apoptotic. In addition, a separate cell line (Ba/F3-derived) expressing JMΔ27 was tested and apoptosis was induced to a level of approximately 85%.

breast tumour cell lines = experiment: WST-1 proliferation assay, breast lines with docetaxel; assay type: cell-based
Protocol: (§2) Pancreatic, colon and prostate cancer cell lines (generous gift from Dr. Juan Iovanna, INSERM U624, Marseille, France), breast and ovarian cancer cell lines (generous gift from Dr. Patrice Dubreuil, UMR 599 INSERM, Marseille, France), and lung cancer cell line (generous gift from Pr. Christian Auclair, UMR 8113 CNRS) were cultured as monolayers in RPMI 1640 medium containing L-glutamine supplemented with 100 U/mL penicillin and 100 μg/mL streptomycin, and 10% v/v heat-inactivated foetal calf serum (AbCys Lot SO2823S1800) under standard culture conditions (5% CO2, 95% air in humidified chamber at 37° C.).
(§3) During proliferation assay, all cells were grown in medium containing 1% FCS.
(§4) Colorimetric cell proliferation and viability assay (reagent WST-1 purchased from Roche cat N° 1644807)
(§5) The cells were washed once and resuspended in RPMI 1% FCS. […]
(§6) For treatment with combination of AB1010 and gemcitabine, the cells were first resuspended in medium RPMI 1% FCS containing AB1010 at the concentrations of 0, 2, 5 and 10 μM. […] The absorbance of the samples was measured at 490 nm using an EL800 Universal microplate reader (Bio-Tek Instruments Inc.).
(§7) Each sample was done in duplicate, the absorbance values were transferred to an excel file, the average and standard deviation of the duplicates were calculated and expressed as a percentage of the proliferation obtained in absence of treatment. […]

colon HT-29 = experiment: WST-1 proliferation assay, sensitization to gemcitabine; assay type: cell-based; conditions: colon HT-29, the one resistant line in which sensitivity was not restored
Protocol: as §2, §3, §4
(§8) The cells were washed once and resuspended in RPMI 1% FCS. Cells at 1.10^4/50 μl were plated per well of a 96 well plate.
(§9) For treatment with combination of AB1010 and gemcitabine, the cells were first resuspended in medium RPMI 1% FCS containing AB1010 at the concentrations of 0, 2, 5 and 10 μM. 1.10^4 cells/50 μl were plated per well of a 96 wells plate and the plates placed in the incubator o/n before treatment with cytotoxic agents. Cytotoxic agent treatment was initiated by addition of 50 μl of a 2× drug dilution (and containing the respective AB1010 drug concentration) to a final volume of 100 μl. AB1010 final concentrations remained 0, 2, 5 and 10 μM. After incubating for 48-72 hours at 37° C., 10 μl of a ½ dilution of WST-1 reagent was added to each well and the plates were returned to the incubator for an additional 4 hours. The absorbance of the samples was measured at 490 nm using an EL800 Universal microplate reader (Bio-Tek Instruments Inc.).
(§10) Each sample was done in duplicate, the absorbance values were transferred to an excel file, the average and standard deviation of the duplicates were calculated and expressed as a percentage of the proliferation obtained in absence of treatment.
(§11) In order to evaluate the ability of AB1010 to sensitize other tumour types to gemcitabine, we performed similar studies on prostate, lung, ovarian and colon tumour cell lines.

[2] = system: rectum HRT-18, and colon Caco-2 and SW-480 cell lines; experiment: as above; assay type: cell-based; conditions: rectum HRT-18, colon Caco-2 and SW-480; AB1010 pre-treatment
Protocol: as §2, §3, §4, §8, §9, §10, §11

[3] = system: lung A549 and H1299 cell lines; experiment: as above; assay type: cell-based; conditions: AB1010 pre-treatment
Protocol: as §2, §3, §4, §8, §9, §10, §11

[4] = system: prostate DU145, and C4-2 cell lines; experiment: as above; assay type: cell-based; conditions: AB1010 pre-treatment
Protocol: as §2, §3, §4, §8, §9, §10, §11

[5] = system: ovarian OVCAR-3 cell lines; experiment: as above; assay type: cell-based; conditions: AB1010 pre-treatment
Protocol: as §2, §3, §4, §8, §9, §10, §11

Capan-2 = experiment: WST-1 cell proliferation and viability assay; assay type: cell-based
Protocol: as §2, §3, §4, §8
(§12) Drug dilutions were prepared in a 96 well plate and obtained by sequential dilutions of AB1010 or gemcitabine in RPMI 1.
(§13) Treatment was started by the addition of 50 μl of a 2× concentrated drug solution to a final volume of 100 μl.
as §9
(§14) A background control without cells was used as a blank for the ELISA reader.
(§15) The positive control of the assay corresponds to the cell proliferation obtained in the absence of drug treatment (100% proliferation).
as §10
(§16) To determine the IC50 concentration of gemcitabine on pancreatic cell lines, the cells were grown in 1% FCS and exposed to different doses of the drug.
(§17) To determine the IC50 concentration of gemcitabine used in association with AB1010, pancreatic cell lines grown in 1% FCS were pre-treated with AB1010 for about 12-16 hours before being exposed to different doses of the gemcitabine.

Panc-1 = experiment: WST-1 cell proliferation and viability assay; assay type: cell-based
Protocol: as §2, §3, §4, §8, §12, §13, §9, §14, §15, §10, §16, §17

BxPC-3 = experiment: WST-1 cell proliferation and viability assay; assay type: cell-based
Protocol: as §2, §3, §4, §8, §12, §13, §9, §14, §15, §10, §16, §17

HRT-18 = experiment: WST-1 proliferation assay, sensitization to Irinotecan; assay type: cell-based; conditions: most resistant colorectal cell line HRT-18; AB1010 pre-treatment
Protocol: as §2, §3, §4, §8
[…] The absorbance of the samples was measured at 490 nm using an EL800 Universal microplate reader (Bio-Tek Instruments Inc.).
as §7

FAK kinase [6] = target: T1, FAK kinase (Homo sapiens, UniProt Q05397); experiment: Western blot of FAK activation status (anti PY / anti phospho FAK); assay type: cell-based; conditions: FIG. 3B
Excerpt: Pancreatic tumour cells lines are described to express high level of the non-receptor tyrosine kinase FAK that contributes to resistance to gemcitabine. […] By the use of either anti PY or anti phospho FAK antibodies, we studied by western blot assay the activation status of FAK kinase.

FAK kinase [7] = target: T1, FAK kinase; experiment: SelectScreen kinase Profiling (Invitrogen), purified kinases; assay type: biochemical; conditions: inhibitor at 1 μM (1,000 nM); for inhibition at 1 µM: read-out: Percentage of inhibition of FAK kinase activity
Mia Paca-2 = experiment: WST-1 cell proliferation and viability assay; assay type: cell-based; conditions: for sensitization to gemcitabine by pre-treatment: MiaPaca-2, pre-treatment 12-16 hours (AB1010 5 and 10 μM; STI571 up to 10 μM) before gemcitabine
Protocol: as §2, §3, §4, §8, §12, §13
as §9, with “AB1010 final concentrations remained 0, 2, 5 and 10 μM. After incubating for 48-72 hours at 37° C., 10 μl of a ½ dilution of WST-1 reagent was added to each well and the plates were returned to the incubator for an additional 4 hours.” left out
A background control without cells was used as a blank for the ELISA reader. […]
as §7

[8] = system: ovarian tumour cell lines; experiment: WST-1 proliferation assay, ovarian lines with paclitaxel; assay type: cell-based
Protocol: as §2, §3, §4, §5, §6, §7

[9] = system: cell line (Ba/F3-derived) expressing JMΔ27; experiment: Apoptosis induction in Ba/F3-derived cell line; assay type: cell-based
Protocol: as §1

T1 sequence (Q05397 whole entry): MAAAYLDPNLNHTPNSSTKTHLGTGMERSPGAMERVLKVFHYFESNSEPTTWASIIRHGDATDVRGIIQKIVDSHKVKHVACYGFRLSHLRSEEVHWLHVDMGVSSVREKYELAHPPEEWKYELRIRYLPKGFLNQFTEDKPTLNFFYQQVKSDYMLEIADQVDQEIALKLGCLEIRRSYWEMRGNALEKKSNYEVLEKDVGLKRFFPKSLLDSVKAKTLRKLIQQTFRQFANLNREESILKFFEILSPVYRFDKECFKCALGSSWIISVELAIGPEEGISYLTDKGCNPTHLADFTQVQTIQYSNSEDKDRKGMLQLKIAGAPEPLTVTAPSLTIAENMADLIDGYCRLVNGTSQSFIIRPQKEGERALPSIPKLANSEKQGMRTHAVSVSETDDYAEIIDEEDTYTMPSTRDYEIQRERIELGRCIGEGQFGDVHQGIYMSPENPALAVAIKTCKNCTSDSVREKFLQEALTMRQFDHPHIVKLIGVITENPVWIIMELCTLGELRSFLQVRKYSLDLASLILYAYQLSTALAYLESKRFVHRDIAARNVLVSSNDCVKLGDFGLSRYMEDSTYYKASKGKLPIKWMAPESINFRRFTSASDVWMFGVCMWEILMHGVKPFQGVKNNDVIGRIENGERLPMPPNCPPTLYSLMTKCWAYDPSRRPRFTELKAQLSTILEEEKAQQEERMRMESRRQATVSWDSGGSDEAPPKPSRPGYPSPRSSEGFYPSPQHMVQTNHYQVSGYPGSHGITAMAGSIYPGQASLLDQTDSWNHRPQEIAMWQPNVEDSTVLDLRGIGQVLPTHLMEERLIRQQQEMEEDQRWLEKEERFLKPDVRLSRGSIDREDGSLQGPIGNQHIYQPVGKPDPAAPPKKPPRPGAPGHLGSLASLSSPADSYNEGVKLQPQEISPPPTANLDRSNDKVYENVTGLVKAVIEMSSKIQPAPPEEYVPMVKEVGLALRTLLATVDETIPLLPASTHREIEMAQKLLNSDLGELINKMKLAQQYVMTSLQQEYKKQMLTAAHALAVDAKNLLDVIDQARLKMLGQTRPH

SMILES: CC(C)(C)n1nc(-c2ccc(Cl)cc2)c2c(N)ncnc21 [PP2]
Percentage of inhibition of FAK kinase activity (FAK kinase [7]): 75%

SMILES: CC(=O)O[C@@]12CO[C@@H]1C[C@H](O)[C@@]1(C)C(=O)[C@H](O)C3=C(C)[C@@H](OC(=O)[C@H](O)[C@@H](NC(=O)OC(C)(C)C)c4ccccc4)C[C@@](O)([C@@H](OC(=O)c4ccccc4)[C@H]21)C3(C)C [Docetaxel, reference compound]
sensitivity to Docetaxel (breast tumour cell lines; breast cancer cell lines, drug alone): most of the breast cancer cell lines tested exhibit resistance

SMILES: CC(=O)O[C@H]1C(=O)[C@@]2(C)[C@H]([C@H](OC(=O)c3ccccc3)[C@]3(O)C[C@H](OC(=O)[C@H](O)[C@@H](NC(=O)c4ccccc4)c4ccccc4)C(C)=C1C3(C)C)[C@]1(OC(C)=O)CO[C@@H]1C[C@@H]2O [Paclitaxel, reference compound]
sensitivity to Paclitaxel ([8]; five ovarian cell lines, drug alone): Three out of the five ovarian cell lines tested exhibit strong sensitivity

Continued, in another order:

inhibition of FAK autoactivation (FAK kinase [6]): inhibits partially
inhibition at 1 µM (FAK kinase [7]): 21%
SMILES: Cc1ccc(NC(=O)c2ccc(CN3CCN(C)CC3)cc2)cc1Nc1nc(-c2cccnc2)cs1 [AB1010, 4-(4-Methyl-piperazin-1-ylmethyl)-N-[4-methyl-3-(4-pyridin-3-yl-thiazol-2-ylamino)-phenyl]-benzamide]
apoptosis induced [1]: approximately 50%
sensitization to docetaxel (breast tumour cell lines; docetaxel-resistant breast cancer cell lines, AB1010 pre-treatment): good sensitization by AB1010 for 6 out of 11
restoration of sensitivity to gemcitabine (colon HT-29): except one
sensitization to gemcitabine [2]: AB1010 sensitizes rectum HRT-18, and colon Caco-2 and SW-480
sensitization to gemcitabine [3]: AB1010 sensitizes lung A549 and H1299 cell lines to gemcitabine
sensitization to gemcitabine [4]: AB1010 sensitizes prostate DU145, and C4-2 cell lines to gemcitabine
sensitization to gemcitabine [5]: AB1010 sensitizes ovarian OVCAR-3 cell lines to gemcitabine
sensitization to gemcitabine by pre-treatment (Capan-2; gemcitabine-sensitive Capan-2, AB1010 pre-treatment): not observed
sensitization to gemcitabine by pre-treatment (Panc-1; Panc-1, AB1010 5 and 10 μM pre-treatment 12-16 hours before gemcitabine): reverse resistance
sensitization to gemcitabine by pre-treatment (BxPC-3; gemcitabine-sensitive BxPC-3, AB1010 pre-treatment): not observed
sensitization to Irinotecan (CPT-11) (HRT-18): good sensitization
sensitization to gemcitabine by pre-treatment (Mia Paca-2): reverse resistance
restoration of sensitivity to Paclitaxel ([8]; resistant ovarian tumour cell lines, AB1010 pre-treatment): restores sensitivity
apoptosis induced [9]: approximately 85%

inhibition at 1 µM (FAK kinase [7]): 9%
SMILES: Cc1ccc(NC(=O)c2ccc(CN3CCN(C)CC3)cc2)cc1Nc1nccc(-c2cccnc2)n1 [STI571]
sensitization to gemcitabine by pre-treatment (Mia Paca-2): does not sensitize; also recorded: does not lead to the same result

IC50 (BxPC-3; Homo sapiens, BxPC-3, 1% FCS, drug alone, read-out: IC50, inhibition of proliferation): 2 to 20 nM
SMILES: Nc1ccn(C2OC(CO)C(O)C2(F)F)c(=O)n1 (stereo not shown) [gemcitabine, 4-amino-1-[3,3-difluoro-4-hydroxy-5-(hydroxymethyl)tetrahydrofuran-2-yl]-1H-pyrimidin-2-one, reference compound]
IC50 (Capan-2; Homo sapiens, Capan-2, 1% FCS, drug alone, read-out: IC50, inhibition of proliferation): 2 to 20 nM
sensitivity to gemcitabine (Panc-1; Panc-1, 1% FCS, drug alone): lack of sensitivity
sensitivity to gemcitabine (Mia Paca-2; Mia Paca-2, 1% FCS, drug alone): lack of sensitivity
